Legend:
Assay in all cases: KINOMEscan competition binding
Conditions in all cases: compound 2.0 µM
ACVR2B (human) = ACVR2B (human) (UniProt Q13705)
BMPR1A (human) = BMPR1A (human) (UniProt P36894)
CDK15 (human) = CDK15 (human) (UniProt Q96Q40)
CDK16 (human) = CDK16 (human) (UniProt Q00536)
CDK4 CCND1 (human) = CDK4 CCND1 (human) (UniProt P11802+P24385)
CDKL1 (human) = CDKL1 (human) (UniProt Q00532)
DAPK2 (human) = DAPK2 (human) (UniProt Q9UIK4)
EPHA8 (human) = EPHA8 (human) (UniProt P29322)
FER (human) = FER (human) (UniProt P16591)
FGFR1 (human) = FGFR1 (human) (UniProt P11362)
FYN (human) = FYN (human) (UniProt P06241)
KIT (human) = KIT (human) (UniProt P10721)
[1] = test system: KIT (human), P10721 [A829P]
LYN (human) = LYN (human) (UniProt P07948)
MAP2K1 (human) = MAP2K1 (human) (UniProt Q02750)
MAPK4 (human) = MAPK4 (human) (UniProt P31152)
MAPK8 (human) = MAPK8 (human) (UniProt P45983)
MET (human) = MET (human) (UniProt P08581)
NEK5 (human) = NEK5 (human) (UniProt Q6P3R8)
NEK6 (human) = NEK6 (human) (UniProt Q9HC98)
[2] = test system: PIK3CA (human), P42336 [C420R]
PIK3CD (human) = PIK3CD (human) (UniProt O00329)
PIK3CG (human) = PIK3CG (human) (UniProt P48736)
PIP4K2C (human) = PIP4K2C (human) (UniProt Q8TBX8)
PLK4 (human) = PLK4 (human) (UniProt O00444)
PRKD1 (human) = PRKD1 (human) (UniProt Q15139)
RET (human) = RET (human) (UniProt P07949)
RPS6KA1 KD1 (human) = RPS6KA1 KD1 (human) (UniProt Q15418)
RPS6KA3 KD1 (human) = RPS6KA3 KD1 (human) (UniProt P51812)
RPS6KA4 KD2 (human) = RPS6KA4 KD2 (human) (UniProt O75676)
RPS6KB1 (human) = RPS6KB1 (human) (UniProt P23443)
SRC (human) = SRC (human) (UniProt P12931)
SRPK1 (human) = SRPK1 (human) (UniProt Q96SB4)
SRPK3 (human) = SRPK3 (human) (UniProt Q9UPE1)
STK32B (human) = STK32B (human) (UniProt Q9NY57)
STK4 (human) = STK4 (human) (UniProt Q13043)
TAOK1 (human) = TAOK1 (human) (UniProt Q7L7X3)
TNK1 (human) = TNK1 (human) (UniProt Q13470)
TRPM6 (human) = TRPM6 (human) (UniProt Q9BX84)
TSSK1B (human) = TSSK1B (human) (UniProt Q9BXA7)
ULK2 (human) = ULK2 (human) (UniProt Q8IYT8)
ULK3 (human) = ULK3 (human) (UniProt Q6PHR2)
YES1 (human) = YES1 (human) (UniProt P07947)

Sequence of STK4 (human) (Q13043 whole entry, looked up): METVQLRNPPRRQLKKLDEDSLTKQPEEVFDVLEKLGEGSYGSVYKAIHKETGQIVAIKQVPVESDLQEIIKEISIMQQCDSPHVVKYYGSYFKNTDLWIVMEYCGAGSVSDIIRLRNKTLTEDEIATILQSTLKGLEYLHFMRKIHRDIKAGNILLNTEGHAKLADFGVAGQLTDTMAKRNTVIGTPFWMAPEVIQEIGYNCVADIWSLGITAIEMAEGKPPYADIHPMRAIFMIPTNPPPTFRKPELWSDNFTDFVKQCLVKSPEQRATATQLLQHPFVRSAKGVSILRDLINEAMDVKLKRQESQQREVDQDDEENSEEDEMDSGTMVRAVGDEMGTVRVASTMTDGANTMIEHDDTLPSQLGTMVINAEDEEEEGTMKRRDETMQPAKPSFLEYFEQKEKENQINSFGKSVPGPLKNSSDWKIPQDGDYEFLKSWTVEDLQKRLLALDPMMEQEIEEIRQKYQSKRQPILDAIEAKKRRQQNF
Sequence of TAOK1 (human) (Q7L7X3 whole entry, looked up): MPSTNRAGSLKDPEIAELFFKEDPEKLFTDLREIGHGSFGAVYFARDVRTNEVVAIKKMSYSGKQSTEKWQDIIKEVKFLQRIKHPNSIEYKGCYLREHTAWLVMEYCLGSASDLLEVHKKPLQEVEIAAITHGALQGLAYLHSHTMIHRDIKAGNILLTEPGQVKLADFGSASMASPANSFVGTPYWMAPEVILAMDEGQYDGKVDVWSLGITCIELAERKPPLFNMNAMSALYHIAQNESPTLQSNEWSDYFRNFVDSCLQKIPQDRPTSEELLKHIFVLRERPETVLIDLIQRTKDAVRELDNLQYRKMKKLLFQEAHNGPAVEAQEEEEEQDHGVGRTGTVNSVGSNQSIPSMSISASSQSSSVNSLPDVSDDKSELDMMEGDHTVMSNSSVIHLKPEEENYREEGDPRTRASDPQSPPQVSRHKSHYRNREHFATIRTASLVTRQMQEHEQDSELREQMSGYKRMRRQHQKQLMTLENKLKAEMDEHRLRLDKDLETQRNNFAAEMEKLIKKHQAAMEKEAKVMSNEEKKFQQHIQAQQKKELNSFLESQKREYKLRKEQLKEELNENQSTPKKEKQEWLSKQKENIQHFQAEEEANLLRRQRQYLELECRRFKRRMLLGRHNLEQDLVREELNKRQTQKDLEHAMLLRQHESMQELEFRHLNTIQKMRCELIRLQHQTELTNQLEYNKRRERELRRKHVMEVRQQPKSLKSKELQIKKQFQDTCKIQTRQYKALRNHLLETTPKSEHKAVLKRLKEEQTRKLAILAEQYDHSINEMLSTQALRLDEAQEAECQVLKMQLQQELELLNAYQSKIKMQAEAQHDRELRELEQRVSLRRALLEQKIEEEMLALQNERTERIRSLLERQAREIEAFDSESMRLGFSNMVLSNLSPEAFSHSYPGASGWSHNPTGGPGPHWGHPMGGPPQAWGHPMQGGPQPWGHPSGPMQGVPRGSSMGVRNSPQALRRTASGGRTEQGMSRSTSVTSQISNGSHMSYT
Sequence of NEK6 (human) (Q9HC98 whole entry, looked up): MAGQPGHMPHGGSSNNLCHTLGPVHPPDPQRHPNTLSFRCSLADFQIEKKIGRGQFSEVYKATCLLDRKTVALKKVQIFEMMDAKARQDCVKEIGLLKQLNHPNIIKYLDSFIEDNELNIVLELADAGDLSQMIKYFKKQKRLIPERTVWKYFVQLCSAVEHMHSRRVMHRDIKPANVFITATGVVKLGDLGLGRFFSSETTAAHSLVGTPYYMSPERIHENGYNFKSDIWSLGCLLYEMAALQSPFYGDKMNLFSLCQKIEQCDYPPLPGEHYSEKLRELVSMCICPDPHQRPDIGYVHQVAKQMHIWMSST
Sequence of NEK5 (human) (Q6P3R8 whole entry, looked up): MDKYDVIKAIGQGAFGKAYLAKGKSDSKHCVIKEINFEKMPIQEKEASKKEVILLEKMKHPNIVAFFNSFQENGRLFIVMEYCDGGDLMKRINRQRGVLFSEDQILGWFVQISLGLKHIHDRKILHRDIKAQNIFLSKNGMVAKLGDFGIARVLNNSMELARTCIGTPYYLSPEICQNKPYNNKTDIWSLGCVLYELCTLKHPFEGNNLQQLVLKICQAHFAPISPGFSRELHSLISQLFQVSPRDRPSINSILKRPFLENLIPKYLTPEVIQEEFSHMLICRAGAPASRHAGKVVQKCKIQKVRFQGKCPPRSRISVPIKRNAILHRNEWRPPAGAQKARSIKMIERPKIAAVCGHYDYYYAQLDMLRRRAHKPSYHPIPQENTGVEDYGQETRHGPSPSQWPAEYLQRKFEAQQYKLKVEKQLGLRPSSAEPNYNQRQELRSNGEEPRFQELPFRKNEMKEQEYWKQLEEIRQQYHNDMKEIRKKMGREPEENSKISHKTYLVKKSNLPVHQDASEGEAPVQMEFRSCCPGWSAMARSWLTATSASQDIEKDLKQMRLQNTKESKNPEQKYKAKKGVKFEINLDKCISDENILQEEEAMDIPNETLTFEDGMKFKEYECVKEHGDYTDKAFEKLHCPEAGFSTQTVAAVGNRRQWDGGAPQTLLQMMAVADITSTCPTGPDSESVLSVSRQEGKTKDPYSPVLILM
Sequence of PIK3CD (human) (O00329 whole entry, looked up): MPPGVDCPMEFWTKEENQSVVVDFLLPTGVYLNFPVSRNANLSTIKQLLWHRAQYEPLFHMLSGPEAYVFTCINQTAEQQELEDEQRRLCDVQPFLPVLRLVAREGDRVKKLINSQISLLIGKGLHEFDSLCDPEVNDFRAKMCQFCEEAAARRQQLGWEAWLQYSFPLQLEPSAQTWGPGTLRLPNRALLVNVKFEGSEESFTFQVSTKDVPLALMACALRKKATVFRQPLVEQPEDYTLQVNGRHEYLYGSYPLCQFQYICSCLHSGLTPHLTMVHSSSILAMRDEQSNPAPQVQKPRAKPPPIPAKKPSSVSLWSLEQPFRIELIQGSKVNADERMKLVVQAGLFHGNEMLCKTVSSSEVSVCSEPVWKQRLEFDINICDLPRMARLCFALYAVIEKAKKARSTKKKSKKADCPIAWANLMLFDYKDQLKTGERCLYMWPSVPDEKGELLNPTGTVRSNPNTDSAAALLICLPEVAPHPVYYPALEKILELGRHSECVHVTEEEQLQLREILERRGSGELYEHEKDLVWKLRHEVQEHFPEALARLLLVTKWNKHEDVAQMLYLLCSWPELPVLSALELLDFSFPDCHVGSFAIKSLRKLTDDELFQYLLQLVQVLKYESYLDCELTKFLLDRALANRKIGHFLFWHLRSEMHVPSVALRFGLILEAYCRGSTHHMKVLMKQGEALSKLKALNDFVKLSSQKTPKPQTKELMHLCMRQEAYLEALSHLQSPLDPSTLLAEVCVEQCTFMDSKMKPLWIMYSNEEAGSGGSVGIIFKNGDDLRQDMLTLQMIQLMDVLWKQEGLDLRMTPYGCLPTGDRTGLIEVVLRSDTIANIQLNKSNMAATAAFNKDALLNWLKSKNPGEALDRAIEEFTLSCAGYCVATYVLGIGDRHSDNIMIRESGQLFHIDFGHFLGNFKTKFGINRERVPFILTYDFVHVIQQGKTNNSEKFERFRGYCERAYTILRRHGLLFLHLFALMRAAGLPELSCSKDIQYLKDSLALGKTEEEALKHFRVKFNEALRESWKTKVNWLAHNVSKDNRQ
Sequence of MAPK8 (human) (P45983 whole entry, looked up): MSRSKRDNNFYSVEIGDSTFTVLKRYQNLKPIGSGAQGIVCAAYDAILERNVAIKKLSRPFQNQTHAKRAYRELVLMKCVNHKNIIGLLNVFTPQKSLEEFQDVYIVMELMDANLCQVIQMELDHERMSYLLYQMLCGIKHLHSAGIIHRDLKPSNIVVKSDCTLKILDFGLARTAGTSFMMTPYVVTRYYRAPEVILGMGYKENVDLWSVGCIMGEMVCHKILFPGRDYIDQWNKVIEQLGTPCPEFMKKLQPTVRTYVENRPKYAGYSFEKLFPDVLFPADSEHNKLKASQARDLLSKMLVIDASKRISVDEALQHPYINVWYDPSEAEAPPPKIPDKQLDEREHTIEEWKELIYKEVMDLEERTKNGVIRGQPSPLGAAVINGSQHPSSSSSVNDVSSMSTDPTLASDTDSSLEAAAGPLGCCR
Sequence of FGFR1 (human) (P11362 whole entry, looked up): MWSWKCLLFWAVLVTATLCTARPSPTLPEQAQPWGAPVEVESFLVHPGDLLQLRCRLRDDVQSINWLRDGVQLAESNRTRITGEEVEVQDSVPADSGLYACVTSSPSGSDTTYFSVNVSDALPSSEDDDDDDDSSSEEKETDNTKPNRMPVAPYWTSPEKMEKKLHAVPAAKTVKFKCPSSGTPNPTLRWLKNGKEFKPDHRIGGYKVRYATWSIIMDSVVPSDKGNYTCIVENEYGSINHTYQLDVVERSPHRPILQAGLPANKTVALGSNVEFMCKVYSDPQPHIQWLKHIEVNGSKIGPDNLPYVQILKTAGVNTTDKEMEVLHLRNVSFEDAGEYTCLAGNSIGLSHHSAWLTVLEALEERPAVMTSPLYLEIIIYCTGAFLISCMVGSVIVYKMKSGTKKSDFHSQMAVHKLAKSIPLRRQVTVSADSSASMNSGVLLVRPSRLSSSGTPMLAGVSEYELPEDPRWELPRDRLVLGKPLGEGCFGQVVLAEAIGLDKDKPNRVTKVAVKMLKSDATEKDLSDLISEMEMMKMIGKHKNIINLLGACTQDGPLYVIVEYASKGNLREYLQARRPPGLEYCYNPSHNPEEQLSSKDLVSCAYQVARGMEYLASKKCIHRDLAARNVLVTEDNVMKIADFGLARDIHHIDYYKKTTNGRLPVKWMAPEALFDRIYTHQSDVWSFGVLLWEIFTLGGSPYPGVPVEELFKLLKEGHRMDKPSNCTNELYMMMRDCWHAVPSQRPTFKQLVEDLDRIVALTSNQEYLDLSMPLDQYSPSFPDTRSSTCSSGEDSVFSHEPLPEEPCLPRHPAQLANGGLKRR

## N#Cc1ccc2ncnc(NCCc3ccc4ccccc4c3)c2c1
ACVR2B (human)
  kinase still bound, per cent of control: 89%
BMPR1A (human)
  kinase still bound, per cent of control: 100%
CDK15 (human)
  kinase still bound, per cent of control: 100%
CDK16 (human)
  kinase still bound, per cent of control: 100%
CDK4 CCND1 (human)
  kinase still bound, per cent of control: 100%
CDKL1 (human)
  kinase still bound, per cent of control: 100%
DAPK2 (human)
  kinase still bound, per cent of control: 87%
EPHA8 (human)
  kinase still bound, per cent of control: 87%
FER (human)
  kinase still bound, per cent of control: 100%
FGFR1 (human)
  kinase still bound, per cent of control: 92%
FYN (human)
  kinase still bound, per cent of control: 98%
KIT (human)
  kinase still bound, per cent of control: 97%
[1]
  kinase still bound, per cent of control: 89%
LYN (human)
  kinase still bound, per cent of control: 99%
MAP2K1 (human)
  kinase still bound, per cent of control: 96%
MAPK4 (human)
  kinase still bound, per cent of control: 87%
MAPK8 (human)
  kinase still bound, per cent of control: 100%
MET (human)
  kinase still bound, per cent of control: 100%
NEK5 (human)
  kinase still bound, per cent of control: 70%
NEK6 (human)
  kinase still bound, per cent of control: 96%
[2]
  kinase still bound, per cent of control: 100%
PIK3CD (human)
  kinase still bound, per cent of control: 100%
PIK3CG (human)
  kinase still bound, per cent of control: 68%
PIP4K2C (human)
  kinase still bound, per cent of control: 91%
PLK4 (human)
  kinase still bound, per cent of control: 100%
PRKD1 (human)
  kinase still bound, per cent of control: 100%
RET (human)
  kinase still bound, per cent of control: 90%
RPS6KA1 KD1 (human)
  kinase still bound, per cent of control: 81%
RPS6KA3 KD1 (human)
  kinase still bound, per cent of control: 97%
RPS6KA4 KD2 (human)
  kinase still bound, per cent of control: 90%
RPS6KB1 (human)
  kinase still bound, per cent of control: 97%
SRC (human)
  kinase still bound, per cent of control: 94%
SRPK1 (human)
  kinase still bound, per cent of control: 100%
SRPK3 (human)
  kinase still bound, per cent of control: 86%
STK32B (human)
  kinase still bound, per cent of control: 97%
STK4 (human)
  kinase still bound, per cent of control: 100%
TAOK1 (human)
  kinase still bound, per cent of control: 96%
TNK1 (human)
  kinase still bound, per cent of control: 90%
TRPM6 (human)
  kinase still bound, per cent of control: 100%
TSSK1B (human)
  kinase still bound, per cent of control: 100%
ULK2 (human)
  kinase still bound, per cent of control: 100%
ULK3 (human)
  kinase still bound, per cent of control: 100%
YES1 (human)
  kinase still bound, per cent of control: 86%

Source: the kinase profiling compilation of Christmann-Franck et al. (2016)
